Reference: patent US8883841B2, “Oncogenic ras-specific cytotoxic compound and methods of use thereof” (The Board of Regents of the University of Texas System, priority 2005, dated 2014)
Where a name gives a salt, the structure may show the parent alone. Read-outs that look alike come from different tables or passages of the source.

How the values were obtained:
[1] = test system: H460 cells; assay: cells; details: Homo sapiens
[2] = test system: T29Kt1 cells; assay: cells; details: Homo sapiens
[3] = test system: T29 cells; assay: cells; details: Homo sapiens, T29, read-out: IC50 in T29 cells
[4] = test system: H226B cells; assay: Cell viability, H226B lung cancer cells; assay type: cell-based, human; details: Homo sapiens, H226B, Lung, read-out: IC50 (−LogM) (converted)
[5] = test system: H1933; assay: Cell viability, H1933 lung cancer cells; assay type: cell-based, human; details: Homo sapiens; H1933, Lung; read-out: IC50 (−LogM) (converted)
[6] = test system: CT116P53; assay: Cell viability, CT116P53 colon cancer cells; assay type: cell-based, human; details: Homo sapiens; CT116P53, Colon; read-out: IC50 (−LogM) (converted)
[7] = test system: Capanc-1; assay: Cell viability, Capanc-1 pancreatic cancer cells; assay type: cell-based, human; details: Homo sapiens, Pancreatic cancer cell; capanc1, Pancrease; read-out: IC50 (−LogM) (converted)
[8] = test system: A549CK8; assay: Cell viability, A549CK8 lung cancer cells; assay type: cell-based, human; details: Homo sapiens; A549CK8, Lung; read-out: IC50 (−LogM) (converted)
[9] = test system: H322 cells; assay: Cell viability, H322 lung cancer cells; assay type: cell-based, human; details: Homo sapiens, NCI-H322; H322, Lung; read-out: IC50 (−LogM) (converted)
[10] = test system: Hey; assay: Cell viability, Hey ovary cancer cells; assay type: cell-based
[11] = test system: DLD1; assay: Cell viability, DLD1 colon cancer cells; assay type: cell-based, human; details: Homo sapiens, DLD-1; DLD1, Colon; read-out: IC50 (−LogM) (converted)
[12] = test system: HKE3; assay: Cell viability, HKE3 colon cancer cells; assay type: cell-based, human; details: Homo sapiens, HKE3, Colon, read-out: IC50 (−LogM) (converted)
[13] = test system: miapac; assay: Cell viability, miapac pancreatic cancer cells; assay type: cell-based, human; details: Homo sapiens, Pancreatic cancer cell; miapac, Pancrease; read-out: IC50 (−LogM) (converted)
[14] = test system: H1395; assay: Cell viability, H1395 lung cancer cells; assay type: cell-based, human; details: Homo sapiens, NCI-H1395; H1395, Lung; read-out: IC50 (−LogM) (converted)
[15] = test system: H2009; assay: Cell viability, H2009 lung cancer cells; assay type: cell-based, human; details: Homo sapiens, NCI-H2009; H2009, Lung; read-out: IC50 (−LogM) (converted)
[16] = test system: Heb44; assay: Cell viability, Heb44 kidney cells; assay type: cell-based
[17] = test system: Hct116; assay: Cell viability, Hct116 colon cancer cells; assay type: cell-based, human; details: Homo sapiens, HCT-116; Hct116, Colon; read-out: IC50 (−LogM) (converted)
[18] = test system: AsPC-1; assay: Cell viability, AsPC-1 pancreatic cancer cells; assay type: cell-based, human; details: Homo sapiens; ASPC1, Pancrease; read-out: IC50 (−LogM) (converted)
[19] = test system: Ovcar3; assay: Cell viability, Ovcar3 ovary cancer cells; assay type: cell-based; details: Homo sapiens, OVCAR-3
[20] = test system: H2122; assay: Cell viability, H2122 lung cancer cells; assay type: cell-based, human; details: Homo sapiens, NCI-H2122; H2122, Lung; read-out: IC50 (−LogM) (converted)
[21] = test system: H1299 cells; assay: Cell viability, H1299 lung cancer cells; assay type: cell-based, human; details: Homo sapiens, NCI-H1299; h1299, Lung; read-out: IC50 (−LogM) (converted)
[22] = test system: Ovca429; assay: Cell viability, Ovca429 ovary cancer cells; assay type: cell-based
[23] = test system: H2087; assay: Cell viability, H2087 lung cancer cells; assay type: cell-based, human; details: Homo sapiens, NCI-H2087; H2087, Lung; read-out: IC50 (−LogM) (converted)
[24] = test system: A549 cells; assay: Cell viability, A549 lung cancer cells; assay type: cell-based, human; details: Homo sapiens; A549, Lung; read-out: IC50 (−LogM) (converted)
[25] = test system: H23; assay: Cell viability, H23 lung cancer cells; assay type: cell-based, human; details: Homo sapiens, NCI-H23; H23, Lung; read-out: IC50 (−LogM) (converted)
[26] = test system: SKOV3; assay: Cell viability, SKOV3 ovary cancer cells; assay type: cell-based; details: Homo sapiens, SK-OV-3
[27] = test system: Sw620; assay: Cell viability, Sw620 colon cancer cells; assay type: cell-based, human; details: Homo sapiens, SW-620; Sw620, Colon; read-out: IC50 (−LogM) (converted)
[28] = test system: Ovcar443; assay: Cell viability, Ovcar443 ovary cancer cells; assay type: cell-based
[29] = test system: Heb46; assay: Cell viability, Heb46 kidney cells; assay type: cell-based
[30] = NCI-H460, read-out: IC50 (−LogM), H460, Lung (converted)
[31] = NCI-H460, read-out: IC50 in H460 cells, Table 1
[32] = T29Kt1, read-out: IC50 in T29k cells, Table 1

| Structure (SMILES) | IC50 [3] [µM] | IC50 ([4]; first H226B line) [µM] | IC50 ([4]; second H226B line) [µM] | IC50 [1, 30] [µM] | IC50 [1, 31] [µM] | IC50 [2, 32] [µM] | IC50 [5] [µM] | IC50 [6] [µM] | IC50 [7] [µM] | IC50 [8] [µM] | IC50 [11] [µM] | IC50 ([12]; first HKE3 line) [µM] | IC50 ([12]; second HKE3 line) [µM] | IC50 [13] [µM] | IC50 [14] [µM] | IC50 [15] [µM] | IC50 [16] [µM] | IC50 [17] [µM] | IC50 [18] [µM] | IC50 [19] [µM] | further results |
| --- | --- | --- | --- | --- | --- | --- | --- | --- | --- | --- | --- | --- | --- | --- | --- | --- | --- | --- | --- | --- | --- |
| COc1ccc2c(c1)c(CCN)c(C)n2Cc1ccccc1 [Oncrasin K005, [2-(1-benzyl-5-methoxy-2-methyl-1H-indol-3-yl)ethyl]amine hydrochloride] | 15.8 | – | – | – | – | – | – | – | – | – | – | – | – | – | – | – | – | – | – | – | IC50 ([1]; NCI-H460, read-out: IC50 in H460 cells): 6.31 µM; IC50 ([2]; T29Kt1, read-out: IC50 in T29k cells): 15.8 µM |
| OCc1cn(Cc2ccccc2Cl)c2ccccc12 [Oncrasin K006, [1-(2-chlorobenzyl)-1H-indol-3-yl]methanol] | – | 0.00251 | 0.0398 | 0.1 | 0.1 | 2.51 | 15.8 | < 31.6 | 12.6 | 3.98 | < 31.6 | 0.126 | 0.251 | < 31.6 | 31.6 | 31.6 | 0.01 | 0.501 | 3.98 | 0.631 | IC50 [9]: 31.6 µM; IC50 [10]: 31.6 µM; IC50 [20]: 3.98 µM; IC50 [21]: 10 µM; IC50 [22]: 10 µM; IC50 [23]: 25.1 µM; IC50 [24]: 12.6 µM; IC50 [25]: 25.1 µM; IC50 [26]: 3.98 µM; IC50 [27]: 10 µM; IC50 [28]: 7.94 µM; IC50 [29]: 2 µM |
| COC(=O)c1c(C)n(Cc2cccc3ccccc23)c2ccc(O)cc12 [Oncrasin K011, methyl 5-hydroxy-2-methyl-1-(1-naphthylmethyl)-1H-indole-3-carboxylate] | 3.16 | – | – | – | 1.58 | 3.16 | – | – | – | – | – | – | – | – | – | – | – | – | – | – | – |
| CC(C)(C)OC(=O)C1=C(N)N(Cc2ccccc2)C2(C)C=CC(=O)C=C12 (centres unmarked) [Oncrasin K041, tert-butyl 2-amino-1-benzyl-7a-methyl-5-oxo-indole-3-carboxylate] | 5.01 | – | – | – | – | 5.01 | – | – | – | – | – | – | – | – | – | – | – | – | – | – | – |
| OCc1cn(Cc2ccc(Cl)c(Cl)c2)c2ccccc12 [Oncrasin K049, [1-(3,4-dichlorobenzyl)-1H-indol-3-yl]methanol] | – | 0.00251 | 0.00316 | 0.0316 | 0.0316 | 0.316 | 100 | < 31.6 | 12.6 | 6.31 | < 31.6 | 0.00251 | 0.00316 | < 31.6 | 15.8 | 10 | 0.01 | 0.01 | 10 | 0.01 | IC50 [9]: 10 µM; IC50 [20]: 0.316 µM; IC50 [21]: 10 µM; IC50 [22]: 7.94 µM; IC50 [23]: 7.94 µM; IC50 [24]: 10 µM; IC50 [25]: 15.8 µM; IC50 [26]: 3.16 µM; IC50 [28]: 10 µM; IC50 [29]: 0.0316 µM |
| Cc1ccc(Cn2cc(C=O)c3ccccc32)cc1 [Oncrasin K66, 1H-Indole-3-carboxaldehyde, 1-[(4-methylphenyl)methyl]-] | 31.6 | – | – | – | 0.0631 | 3.98 | – | – | – | – | – | – | – | – | – | – | – | – | – | – | – |
| O=[N+]([O-])c1cccc(Cn2cc(CO)c3ccccc32)c1 [Oncrasin K69, 1H-Indole-3-methanol, 1-[(3-nitrophenyl)methyl]-] | – | 0.0316 | 0.1 | 0.0398 | 0.0398 | 0.398 | < 31.6 | < 31.6 | 31.6 | 1.26 | < 31.6 | 0.0794 | 1 | < 31.6 | < 31.6 | < 31.6 | 0.0794 | 0.316 | 7.94 | 0.251 | IC50 [10]: < 31.6 µM; IC50 [20]: 2 µM; IC50 [22]: 31.6 µM; IC50 [23]: 31.6 µM; IC50 [26]: 3.16 µM; IC50 [27]: 31.6 µM; IC50 [29]: 0.316 µM |
| O=[N+]([O-])c1ccc(Cn2cc(CO)c3ccccc32)cc1 [Oncrasin K71, 1H-Indole-3-methanol, 1-[(4-nitrophenyl)methyl]-] | – | 0.316 | 1.58 | 0.0794 | 0.0794 | 0.158 | 31.6 | < 31.6 | 0.126 | 7.94 | < 31.6 | 0.398 | 0.2 | < 31.6 | < 31.6 | < 31.6 | 0.158 | 3.16 | 10 | 2.51 | IC50 [10]: 31.6 µM; IC50 [20]: 3.16 µM; IC50 [21]: 10 µM; IC50 [25]: 31.6 µM; IC50 [27]: 31.6 µM; IC50 [29]: 3.98 µM |
| O=Cc1cn(Cc2cc(C(F)(F)F)cc(C(F)(F)F)c2)c2ccccc12 [Oncrasin K76] | 6.31 | – | – | – | 1.26 | 3.98 | – | – | – | – | – | – | – | – | – | – | – | – | – | – | – |
| OCn1cc(Cc2cc(C(F)(F)F)cc(C(F)(F)F)c2)c2ccccc21 [Oncrasin K77] | 6.31 | – | – | – | 7.94 | 7.94 | – | – | – | – | – | – | – | – | – | – | – | – | – | – | – |
